Reference: patent US10501518B2 (priority 2013, dated 2019)
Starred links: 1 amine or outer side, 2 acyl side, 3 side chain; linkers in the order of their positions; H or OH if unused. Non-standard residues stand in square brackets, D forms with d. Residues, ends and D or L forms follow the SMILES beside them. X13 = O=C([C@H]1CNC[C@@H]1N[*:1])[*:2]

Legend:
WT human PTHR-1 = molecular target: T1, WT human PTHR-1 (Homo sapiens, UniProt Q03431); experiment: cAMP GloSensor dose-response in GP-2.3 cells expressing human PTHR-1; format: cell-based
T1 construct: bioactivity of the resulting compound in full-length hPTHR-1 and a truncated version; expressed in transfected cells
T1 sequence (Q03431 27-593): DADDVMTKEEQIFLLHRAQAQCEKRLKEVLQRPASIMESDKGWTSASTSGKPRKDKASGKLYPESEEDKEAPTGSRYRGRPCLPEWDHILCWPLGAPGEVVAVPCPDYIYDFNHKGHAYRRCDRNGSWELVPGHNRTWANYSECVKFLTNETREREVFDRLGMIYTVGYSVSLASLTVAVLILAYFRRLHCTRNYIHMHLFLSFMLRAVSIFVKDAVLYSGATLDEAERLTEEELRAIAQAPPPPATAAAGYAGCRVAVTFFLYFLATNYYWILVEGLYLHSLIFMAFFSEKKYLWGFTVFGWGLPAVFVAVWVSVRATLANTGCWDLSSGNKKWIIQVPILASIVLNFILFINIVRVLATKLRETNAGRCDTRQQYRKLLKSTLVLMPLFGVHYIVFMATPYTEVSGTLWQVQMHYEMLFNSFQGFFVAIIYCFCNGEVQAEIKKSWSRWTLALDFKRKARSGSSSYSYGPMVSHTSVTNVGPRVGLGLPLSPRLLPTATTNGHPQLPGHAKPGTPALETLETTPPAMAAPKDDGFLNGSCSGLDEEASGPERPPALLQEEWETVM
Summary of the method: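 Confluent cells preloaded with 0.5 mM d-luciferin at room temperature until luminescence baseline stabilised (30 min), then given varying agonist concentrations. Luminescence time course recorded after α/β-peptide addition. Means ±SEM of n>4 experiments, each in duplicate.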

delNT PTHR1 = molecular target: T2, delNT PTHR1 (Homo sapiens, UniProt Q03431, DEL24-181); experiment: cAMP-inducing potency at truncated receptor delNT PTHR1; format: cell-based; details: Table 8; EC50 relative to PTH(1-34)
T2 construct: expressed in transfected cells
T2 sequence (Q03431 with tags, fused parts or gaps DEL24-181): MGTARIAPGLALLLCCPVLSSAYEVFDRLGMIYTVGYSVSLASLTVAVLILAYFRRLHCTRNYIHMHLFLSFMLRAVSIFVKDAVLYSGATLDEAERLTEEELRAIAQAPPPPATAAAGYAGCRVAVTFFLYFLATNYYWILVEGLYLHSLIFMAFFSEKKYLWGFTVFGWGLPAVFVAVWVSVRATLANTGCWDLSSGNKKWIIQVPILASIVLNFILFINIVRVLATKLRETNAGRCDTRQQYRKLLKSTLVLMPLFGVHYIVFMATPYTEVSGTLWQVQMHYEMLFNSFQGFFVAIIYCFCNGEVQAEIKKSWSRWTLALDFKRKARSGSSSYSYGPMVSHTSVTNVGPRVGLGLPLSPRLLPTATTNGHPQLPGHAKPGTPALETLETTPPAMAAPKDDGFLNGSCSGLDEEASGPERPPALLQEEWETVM

RG form of human PTHR-1 = molecular target: T3, RG form of human PTHR-1 (Homo sapiens, UniProt Q03431); experiment: Radio-ligand competition binding to RG form of human PTHR-1 (COS-7 membranes, 125I-M-PTH(1-15) tracer, high affinity Gαs mutant); details: Table 1; 125I-M-PTH(1-15) tracer, Gαs mutant; read-out: RG IC50, nM, Binding (hPTHR-1)
T3 construct: expressed in transfected cells; host or cells: COS-7
T3 sequence (Q03431 27-593): T1 sequence (Q03431 27-593)
Text: Data are means (±SEM) of n≥4 experiments, each performed in duplicate.

WT rat PTHR-1 = molecular target: T4, WT rat PTHR-1 (Rattus norvegicus, UniProt P25961); experiment: cAMP GloSensor dose-response in GR-35 cells expressing rat PTHR-1; format: cell-based; details: Table 7; GR-35 cells, 12-16 minutes after ligand addition; mean ± SEM
T4 construct: expressed in transfected cells
T4 sequence (P25961 27-591): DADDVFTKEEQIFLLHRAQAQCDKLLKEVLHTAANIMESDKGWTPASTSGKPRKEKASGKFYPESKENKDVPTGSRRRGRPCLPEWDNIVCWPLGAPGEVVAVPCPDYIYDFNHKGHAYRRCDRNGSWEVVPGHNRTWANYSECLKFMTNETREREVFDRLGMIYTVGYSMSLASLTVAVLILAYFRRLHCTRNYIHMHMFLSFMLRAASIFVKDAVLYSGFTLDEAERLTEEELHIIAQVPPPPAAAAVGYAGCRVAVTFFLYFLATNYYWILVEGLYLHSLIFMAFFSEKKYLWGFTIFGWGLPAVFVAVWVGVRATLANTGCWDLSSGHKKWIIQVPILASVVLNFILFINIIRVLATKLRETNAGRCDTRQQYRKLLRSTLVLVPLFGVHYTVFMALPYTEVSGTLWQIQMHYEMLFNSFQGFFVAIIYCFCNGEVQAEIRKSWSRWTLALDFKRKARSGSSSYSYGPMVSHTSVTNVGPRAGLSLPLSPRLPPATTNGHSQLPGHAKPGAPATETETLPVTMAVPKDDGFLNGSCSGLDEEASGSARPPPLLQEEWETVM

Compound	hPTHR1 EC50, nM (Means ± SEM) (WT human PTHR-1; Table 8, cAMP-inducing potency, N-terminal modifications)	Fold PTH, nM (deINT PTHR1) (delNT PTHR1)	EC50 (WT human PTHR-1; Table 1, GP-2.3 cells, read-out: cAMP (hPTHR-1) EC50) [nM]	cAMP (hPTHR-1) Max (WT human PTHR-1; Table 1, luminescence counts per second relative to PTH(1-34), 12-16 minutes after ligand addition)	Max (WT human PTHR-1; Table 6, GP-2.3 cells, 12-16 minutes after ligand addition, mean ± SEM)	IC50 (RG form of human PTHR-1) [nM]	Max (WT rat PTHR-1)
CC[C@H](C)[C@H](NC(=O)[C@H](CCC(=O)O)NC(=O)[C@H](CO)NC(=O)[C@@H](NC(=O)[C@@H](N)CO)C(C)C)C(=O)N[C@@H](CCC(N)=O)C(=O)N[C@@H](CC(C)C)C(=O)N[C@@H](CCSC)C(=O)N[C@H]1CNC[C@@H]1C(=O)N[C@@H](CC(N)=O)C(=O)N[C@@H](CC(C)C)C(=O)NCC(=O)N[C@@H](CCCCN)C(=O)N[C@@H](Cc1c[nH]cn1)C(=O)N[C@@H](CC(C)C)C(=O)N[C@@H](CC(N)=O)C(=O)N[C@@H](CO)C(=O)N[C@@H](CCSC)C(=O)N[C@@H](CCC(=O)O)C(=O)N[C@@H](CCCNC(=N)N)C(=O)N[C@H](C(=O)N[C@@H](CCC(=O)O)C(=O)N[C@@H](Cc1c[nH]c2ccccc12)C(=O)N[C@@H](CC(C)C)C(=O)N[C@@H](CCCNC(=N)N)C(=O)N[C@@H](CCCCN)C(=O)N[C@@H](CCCCN)C(=O)N[C@@H](CC(C)C)C(=O)N[C@@H](CCC(N)=O)C(=O)N[C@@H](CC(=O)O)C(=O)N[C@H](C(=O)N[C@@H](Cc1c[nH]cn1)C(=O)N[C@@H](CC(N)=O)C(=O)N[C@@H](Cc1ccccc1)C(N)=O)C(C)C)C(C)C [APC(9)] (H-SVSEIQLM[X13]NLGKHLNSMERVEWLRKKLQDVHNF-NH2; N-terminus assumed)	No activity	87					
CC[C@H](C)[C@H](NC(=O)[C@H](CCC(=O)O)NC(=O)[C@H](CO)NC(=O)[C@@H](NC(=O)[C@@H](N)CO)C(C)C)C(=O)N[C@@H](CCC(N)=O)C(=O)N[C@@H](CC(C)C)C(=O)N[C@@H](CCSC)C(=O)N[C@@H](Cc1c[nH]cn1)C(=O)N[C@@H](CC(N)=O)C(=O)N[C@@H](CC(C)C)C(=O)NCC(=O)N[C@@H](CCCCN)C(=O)N[C@@H](Cc1c[nH]cn1)C(=O)N[C@@H](CC(C)C)C(=O)N[C@@H](CC(N)=O)C(=O)N[C@@H](CO)CC(=O)N[C@@H](CCSC)C(=O)N[C@@H](CCC(=O)O)C(=O)N[C@@H](CCCNC(=N)N)C(=O)N[C@H](CC(=O)N[C@@H](CCC(=O)O)C(=O)N[C@@H](Cc1c[nH]c2ccccc12)C(=O)N[C@@H](CC(C)C)C(=O)N[C@@H](CCCNC(=N)N)CC(=O)N[C@@H](CCCCN)C(=O)N[C@@H](CCCCN)C(=O)N[C@@H](CC(C)C)C(=O)N[C@@H](CCC(N)=O)CC(=O)N[C@@H](CC(=O)O)C(=O)N[C@H](C(=O)N[C@@H](Cc1c[nH]cn1)C(=O)N[C@@H](CC(N)=O)CC(=O)N[C@@H](Cc1ccccc1)C(N)=O)C(C)C)C(C)C [C5]			0.2	1.01	219 ± 39 luminescence counts per second × 10^−3	0.4	48 ± 17 luminescence counts per second × 10−3
